Results: US10730874B2 (Shire Human Genetic Therapies, Inc., priority 2018, dated 2020)

Molecular target: human activated kallikrein enzyme (plasma kallikrein) (Homo sapiens (Human), UniProt P03952)
Assay: Inhibition of human activated plasma kallikrein, fluorogenic peptide substrate assay, 500 pM enzyme format
Format: biochemical
Details: 500 pM activated kallikrein enzyme, 300 uM Pro-Phe-Arg-7-amido-4-methylcoumarin substrate, 30 min preincubation, 10 min at RT; read-out: Primary Dose Response Assay: Average EC50
Description: Example compounds were evaluated for inhibition of the human activated kallikrein enzyme in two formats of an assay employing a fluorogenic peptide substrate. In one assay format, the concentrations of reagents were as follows: 20 mM Tris pH 7.5, 1 mM EDTA, 150 mM sodium chloride, 0.1% PEG-400, 0.1% Triton X-100, 500 pM activated kallikrein enzyme, 300 uM Pro-Phe-Arg-7-amido-4-methylcoumarin substrate. Prior to reaction initiation with substrate, enzyme and inhibitors were preincubated for 30 min at RT. After initiation with substrate, reactions were incubated for 10 min at RT and fluorescence emission at 460 nm from 380 nm excitation measured with a microplate reader. In another assay format, the concentrations of reagents were as follows: 20 mM Tris pH 7.5, 1 mM EDTA, 150 mM sodium chloride, 0.1% PEG-400, 0.1% Triton X-100, 5 pM activated kallikrein enzyme, 300 uM Pro-Phe-Arg-7-amido-4-methylcoumarin substrate. Prior to reaction initiation with substrate, enzyme and inhibitors were preincubated for 30 min at RT. After initiation with substrate, reactions were incubated for 18 h at RT and fluorescence emission at 460 nm from 380 nm excitation measured with a microplate reader.

Chain of human activated kallikrein enzyme (plasma kallikrein) (P03952 391-638): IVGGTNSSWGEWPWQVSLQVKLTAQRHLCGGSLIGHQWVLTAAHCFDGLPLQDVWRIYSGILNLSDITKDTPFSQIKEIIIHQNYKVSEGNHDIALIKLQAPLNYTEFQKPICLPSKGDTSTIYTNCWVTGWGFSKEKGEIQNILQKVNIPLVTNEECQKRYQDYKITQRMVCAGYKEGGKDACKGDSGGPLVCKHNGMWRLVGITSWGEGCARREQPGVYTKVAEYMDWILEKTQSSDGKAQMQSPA
Chain of human activated kallikrein enzyme (plasma kallikrein) (P03952 20-390 partner): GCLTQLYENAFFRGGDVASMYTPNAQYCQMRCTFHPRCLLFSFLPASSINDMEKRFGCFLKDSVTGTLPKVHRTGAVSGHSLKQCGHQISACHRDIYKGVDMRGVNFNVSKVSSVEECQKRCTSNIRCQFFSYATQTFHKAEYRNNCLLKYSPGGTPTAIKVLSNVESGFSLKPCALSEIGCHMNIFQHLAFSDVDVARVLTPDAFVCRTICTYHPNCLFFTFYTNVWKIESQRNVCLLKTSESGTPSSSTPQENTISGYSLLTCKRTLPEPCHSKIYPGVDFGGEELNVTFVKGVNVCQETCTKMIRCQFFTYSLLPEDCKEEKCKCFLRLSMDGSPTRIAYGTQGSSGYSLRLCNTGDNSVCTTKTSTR

SMILES | EC50 [nM]
O=C(NCc1ncn2ccc(Cl)c(F)c12)c1cn(Cc2cn3cc(C4CC4)cc(Cn4cccn4)c3n2)nn1 [Example I-201, 1-((8-((1H-pyrazol-1-yl)methyl)-6-cyclopropylimidazo[1,2-a]pyridin-2-yl)methyl)-N-((7-chloro-8-fluoroimidazo[1,5-a]pyridin-1-yl)methyl)-1H-1,2,3-triazole-4-carboxamide] | < 1
N#Cc1cccc2nc(Cn3cc(C(=O)NCc4ncn5ccc(Cl)cc45)cn3)cn12 [Example I-54, N-((7-chloroimidazo[1,5-a]pyridin-1-yl)methyl)-1-((5-cyanoimidazo[1,2-a]pyridin-2-yl)methyl)-1H-pyrazole-4-carboxamide] | 10 to 100
O=C(NCc1ncn2ccc(Cl)cc12)c1cnn(Cc2cn3cc(C4CC4)cc(C(=O)O)c3n2)c1 [Example I-72, 2-((4-(((7-chloroimidazo[1,5-a]pyridin-1-yl)methyl)carbamoyl)-1H-pyrazol-1-yl)methyl)-6-cyclopropylimidazo[1,2-a]pyridine-8-carboxylic acid] | 1 to 10
CCOC(=O)C1CC1c1cc(C2CC2)cn2cc(Cn3cc(C(=O)NCc4ncn5ccc(Cl)cc45)cn3)nc12 (stereo not shown) [Example I-127, ethyl 2-(2-((4-(((7-chloroimidazo[1,5-a]pyridin-1-yl)methyl)carbamoyl)-1H-pyrazol-1-yl)methyl)-6-cyclopropylimidazo[1,2-a]pyridin-8-yl)cyclopropane-1-carboxylate] | < 1
O=C(NCc1ncn2ccc(Cl)c(F)c12)c1cn(Cc2cn3cc(C4CC4)cc(-n4cccn4)c3n2)nn1 [Example I-220, N-((7-chloro-8-fluoroimidazo[1,5-a]pyridin-1-yl)methyl)-1-((6-cyclopropyl-8-(1H-pyrazol-1-yl)imidazo[1,2-a]pyridin-2-yl)methyl)-1H-1,2,3-triazole-4-carboxamide] | < 1
O=C(NCc1ncn2ccc(Cl)c(F)c12)c1cn(Cc2cc3cc(C4CC4)ccc3[nH]2)nn1 [Example I-232, N-((7-chloro-8-fluoroimidazo[1,5-a]pyridin-1-yl)methyl)-1-((5-cyclopropyl-1H-indol-2-yl)methyl)-1H-1,2,3-triazole-4-carboxamide] | 10 to 100
COC(=O)C1(Cc2cc(C3CC3)cn3cc(Cn4cc(C(=O)NCc5ncn6ccc(Cl)c(F)c56)nn4)nc23)CCCC1 [Example I-221a, methyl 1-((2-((4-(((7-chloro-8-fluoroimidazo[1,5-a]pyridin-1-yl)methyl)carbamoyl)-1H-1,2,3-triazol-1-yl)methyl)-6-cyclopropylimidazo[1,2-a]pyridin-8-yl)methyl)cyclopentane-1-carboxylate] | < 1
N#Cc1cc(C2CC2)cn2cc(Cn3cc(C(=O)NCc4ncn5ccc(Br)c(F)c45)nn3)nc12 [Example I-131, N-((7-bromo-8-fluoroimidazo[1,5-a]pyridin-1-yl)methyl)-1-((8-cyano-6-cyclopropylimidazo[1,2-a]pyridin-2-yl)methyl)-1H-1,2,3-triazole-4-carboxamide] | < 1
O=C(O)Cc1cc(C2CC2)cn2cc(Cn3cc(C(=O)NCc4ncn5ccc(Cl)c(F)c45)nn3)nc12 [Example I-157b, 2-(2-((4-(((7-chloro-8-fluoroimidazo[1,5-a]pyridin-1-yl)methyl)carbamoyl)-1H-1,2,3-triazol-1-yl)methyl)-6-cyclopropylimidazo[1,2-a]pyridin-8-yl)acetic acid] | < 1
CCOC(=O)CCc1cc(C2CC2)cn2cc(Cn3cc(C(=O)NCc4ncn5ccc(Cl)c(F)c45)nn3)nc12 [Example I-163a, ethyl 3-(2-((4-(((7-chloro-8-fluoroimidazo[1,5-a]pyridin-1-yl)methyl)carbamoyl)-1H-1,2,3-triazol-1-yl)methyl)-6-cyclopropylimidazo[1,2-a]pyridin-8-yl)propanoate] | < 1
O=C(NCc1ncn2ccc(Cl)cc12)c1nc(Cc2cn3cc(C4CC4)ccc3n2)no1 [Example I-190, N-((7-chloroimidazo[1,5-a]pyridin-1-yl)methyl)-3-((6-cyclopropylimidazo[1,2-a]pyridin-2-yl)methyl)-1,2,4-oxadiazole-5-carboxamide] | < 1
Cc1cc2nc(Cn3cc(C(=O)NCc4ncn5ccc(Br)cc45)cn3)cn2cc1C1CC1 [Example I-17, N-((7-bromoimidazo[1,5-a]pyridin-1-yl)methyl)-1-((6-cyclopropyl-7-methylimidazo[1,2-a]pyridin-2-yl)methyl)-1H-pyrazole-4-carboxamide] | 1 to 10
Cc1ncc(-c2cc(C3CC3)cn3cc(Cn4cc(C(=O)NCc5ncn6ccc(Cl)c(F)c56)nn4)nc23)s1 [Example I-257, N-((7-chloro-8-fluoroimidazo[1,5-a]pyridin-1-yl)methyl)-1-((6-cyclopropyl-8-(2-methylthiazol-5-yl)imidazo[1,2-a]pyridin-2-yl)methyl)-1H-1,2,3-triazole-4-carboxamide] | < 1
O=C(NCc1ncn2ccc(Cl)c(F)c12)c1cn(Cc2cn3ccccc3n2)cn1 [Example I-297, N-((7-chloro-8-fluoroimidazo[1,5-a]pyridin-1-yl)methyl)-1-(imidazo[1,2-a]pyridin-2-ylmethyl)-1H-imidazole-4-carboxamide] | 10 to 100
O=C(NCc1ncn2ccc(Cl)c(F)c12)c1cn(Cc2cc3ccc(C4CC4)cc3[nH]2)nn1 [Example I-235, N-((7-chloro-8-fluoroimidazo[1,5-a]pyridin-1-yl)methyl)-1-((6-cyclopropyl-1H-indol-2-yl)methyl)-1H-1,2,3-triazole-4-carboxamide] | 100 to 2000
CCn1ncn(-c2cc(C3CC3)cn3cc(Cn4cc(C(=O)NCc5ncn6ccc(Cl)c(F)c56)nn4)nc23)c(=O)c1=O [Example I-242, N-((7-chloro-8-fluoroimidazo[1,5-a]pyridin-1-yl)methyl)-1-((6-cyclopropyl-8-(1-ethyl-5,6-dioxo-5,6-dihydro-1,2,4-triazin-4(1H)-yl)imidazo[1,2-a]pyridin-2-yl)methyl)-1H-1,2,3-triazole-4-carboxamide] | < 1
O=C(NCc1ncn2ccc(Cl)cc12)c1cn(Cc2cn3cc(C4CC4)ccc3n2)nc1C1CC1C(=O)O (stereo not shown) [Example I-120, 2-(4-(((7-chloroimidazo[1,5-a]pyridin-1-yl)methyl)carbamoyl)-1-((6-cyclopropylimidazo[1,2-a]pyridin-2-yl)methyl)-1H-pyrazol-3-yl)cyclopropane-1-carboxylic acid] | < 1
COC(=O)Cn1c(Cn2cc(C(=O)NCc3ncn4ccc(Cl)c(F)c34)nn2)cc2cc(C3CC3)ccc21 [Example I-246, methyl 2-(2-((4-(((7-chloro-8-fluoroimidazo[1,5-a]pyridin-1-yl)methyl)carbamoyl)-1H-1,2,3-triazol-1-yl)methyl)-5-cyclopropyl-1H-indol-1-yl)acetate] | < 1
O=C(NCc1ncn2ccc(Cl)c(F)c12)c1cn(Cc2cc3cc(C4CC4)cc(C(F)(F)F)n3n2)nn1 [Example I-231, N-((7-chloro-8-fluoroimidazo[1,5-a]pyridin-1-yl)methyl)-1-((5-cyclopropyl-7-(trifluoromethyl)pyrazolo[1,5-a]pyridin-2-yl)methyl)-1H-1,2,3-triazole-4-carboxamide] | < 1
O=C(NCc1ncn2ccc(Cl)c(F)c12)c1cn(Cc2cc3cc(C4CC4)cc(N4CCCC4=O)n3n2)nn1 [Example I-262, N-((7-chloro-8-fluoroimidazo[1,5-a]pyridin-1-yl)methyl)-1-((5-cyclopropyl-7-(2-oxopyrrolidin-1-yl)pyrazolo[1,5-a]pyridin-2-yl)methyl)-1H-1,2,3-triazole-4-carboxamide] | < 1
Cc1cc2nc(Cn3cc(C(=O)NCc4ncn5ccc(Cl)cc45)cn3)cn2cc1Br [Example I-28, 1-((6-bromo-7-methylimidazo[1,2-a]pyridin-2-yl)methyl)-N-((7-chloroimidazo[1,5-a]pyridin-1-yl)methyl)-1H-pyrazole-4-carboxamide] | 1 to 10
O=C(NCc1ncn2ccc(Cl)c(F)c12)c1cnn(Cc2cn3ccccc3n2)c1 [Example I-284, N-((7-chloro-8-fluoroimidazo[1,5-a]pyridin-1-yl)methyl)-1-(imidazo[1,2-a]pyridin-2-ylmethyl)-1H-pyrazole-4-carboxamide] | 10 to 100
C#Cc1ccn2cnc(CNC(=O)c3cnn(Cc4cn5cc(C6CC6)ccc5n4)c3)c2c1 [Example I-66, 1-((6-cyclopropylimidazo[1,2-a]pyridin-2-yl)methyl)-N-((7-ethynylimidazo[1,5-a]pyridin-1-yl)methyl)-1H-pyrazole-4-carboxamide] | < 1
O=C(NCc1ncn2ccc(Cl)cc12)c1noc(Cc2cn3cc(C4CC4)ccc3n2)n1 [Example I-177, N-((7-chloroimidazo[1,5-a]pyridin-1-yl)methyl)-5-((6-cyclopropylimidazo[1,2-a]pyridin-2-yl)methyl)-1,2,4-oxadiazole-3-carboxamide] | 1 to 10
O=C(NCc1ncn2ccc(Cl)c(F)c12)c1cn(Cc2cn3cc(C4CC4)cc(C4COC4)c3n2)nn1 [Example I-169, N-((7-chloro-8-fluoroimidazo[1,5-a]pyridin-1-yl)methyl)-1-((6-cyclopropyl-8-(oxetan-3-yl)imidazo[1,2-a]pyridin-2-yl)methyl)-1H-1,2,3-triazole-4-carboxamide] | < 1
